Laboratory results published in US20260137697A1, “THIAZOLO[5,4-D]PYRIMIDINE COMPOUNDS, COMPOSITIONS COMPRISING THEM AND USES THEREOF” (University de Montreal, priority 2022, published 2026).
Read-outs that look alike come from different tables or passages of the source.

Assays:
Type in all cases: cell-based, human
pERK, SW480 cells = experiment: Phospho-ERK inhibition, AlphaLISA p-ERK 1/2, SW480; details: Table D-2; for IC50: SW480 (KRAS G12D); for pERK value in parentheses, % inhibition (Ymin): SW480, lowest point of IC50 curve
Procedure: (§1) All cancer cell lines (A375, A101D, A2058, RKO, HT29 SK-MEL 30, IPC298, HepG2, HCT-116, Lovo, SW620, SW480, NCI-H358, NCI-H2122, Calu-6, NCIH2087, NCIH1755, NCIH1666 and Mewo) were obtained from ATCC and cultured in RPM1-1640 medium (Gibco) supplemented with 5% heat inactivated fetal bovine serum (FBS, Wisent) at 37° C. under 5% CO2. Cells were maintained in T175 flasks (Greiner). They were passaged by removing the culture medium, washing once in 10 mL of room temperature Phosphate Buffered Saline (PBS; Wisent) and incubating at 37° C. with 2 mL of 0.05% Trypsin (Thermo-Fisher). Trypsin was then inactivated by adding complete growth medium and the cells were then replated in a T175 culture dish at the appropriate dilution. All cell lines were routinely tested for mycoplasma contamination. Tissue type and mutational status of each cell line can be found in Table B.
(§2) (c) Measurement of Phospho-ERK Inhibition in Cultivated Human Cancer Cell Lines by the AlphaLISA® SureFire® Ultra™ p-ERK 1/2 (Thr2O2/Tyr204)
(§3) AlphaLISA® SureFire® Ultra™ p-ERK 1/2 (Thr202/Tyr204) analysis was conducted on cells plated in 100 μL of complete RPMI-1640 growth medium in 96-well flat-bottomed transparent dishes (Costar) at a density indicated in Table C. Cells were maintained overnight at 37° C. under 5% CO2 before treatment with compounds' dilution series for one hour. The cell density in cells/cm^2 corresponds to cell number divided by the area of one well of a 96-well plate (0.143 cm^2).
(§4) In a dilution series 100 μL/well of test substance dilution prepared in complete RPMI-1640 growth media was added to the cells. The dilution series is selected so that ten concentrations cover a range from 10 μM to 0.33 nM. If necessary, the initial concentration of 10 μM is increased to 100 μM or lowered to 1 μM (as in the case of A375 and H1666 cells, which are generally more sensitive to the compounds) and further dilution is carried out accordingly. The final concentration of DMSO in the assay is set at 0.5%.
(§5) After treatment, media was removed, and cells were lysed in 50 μL of 1× AlphaScreen Ultra Lysis Buffer (Perkin Elmer). The AlphaLISA® SureFire® Ultra™ p-ERK 1/2 (Thr202/Tyr204) (PerkinElmer) reactions were performed with 5 μL of cell lysate according to the manufacturer's specifications in 384-well proxyplates (Perkin Elmer) followed by overnight incubation of the reactions at room temperature in a humidified chamber. After completion of the reactions, the signals were recorded on an EnVision plate reader (Perkin Elmer) using built in AlphaLISA® settings.
(§6) The effect of each compound dilution on the pERK signal was expressed in % inhibition and calculated as follows. An internal 100% inhibition control (1 μM trametinib, cat. No. HY-10999; MedChem Express; CAS No. 871700-17-3) was included in each plate and used as a measure of pERK background. First, the value obtained for trametinib was subtracted from each data point. The average of DMSO (vehicle) controls (set as 0% inhibition) was established and used to calculate % inhibition:
(§7) The ability of each compound to inhibit pERK signal was expressed as an IC50 value obtained by plotting the inhibition values for each data point of a dilution series and fitting the obtained curves using a log(agonist) versus response—variable slope (four parameters) function using GraphPadPrism (V7.0) or Dotmatics Screening Ultra platform.
(§8) When present, paradoxical pERK induction is inferred from the negative % inhibition values observed in the pERK IC50 curves of a compound.

pERK, Mewo cells = experiment: Phospho-ERK inhibition, AlphaLISA p-ERK 1/2, Mewo; details: Table D-2; for IC50: Mewo (NF1 LOF); for pERK value in parentheses, % inhibition (Ymin): Mewo, lowest point of IC50 curve
Procedure: as §1, §2, §3, §4, §5, §6, §7, §8

pERK, HCT116 cells = experiment: Phospho-ERK inhibition, AlphaLISA p-ERK 1/2, HCT-116; details: Table 3; for IC50: HCT116 cells (KRAS G13D), 1 h treatment; for HCT116 pERK (Ymin %): lowest % inhibition value of the pERK IC50 curve, above −20% = no paradoxical induction
Procedure, shortened: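 Cells in RPMI-1640 with 5% FBS plated overnight, then treated 1 h with ten-point dilutions (10 μM to 0.33 nM, 0.5% DMSO). Lysate p-ERK1/2 (Thr202/Tyr204) read by AlphaLISA SureFire Ultra; % inhibition normalised to DMSO and 1 μM trametinib background, IC50 by four-parameter fit.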

Mewo cells = experiment: Proliferation inhibition, CellTiter-Glo, Mewo; details: Table D-2, Mewo (NF1 LOF), 3 days, read-out: Prolif. (proliferation EC50)
Procedure: as §1
(§9) CellTiter-Glo® viability analysis was conducted on cells plated in 100 μL of complete RPMI-1640 growth medium in 96-well flat-bottomed white opaque plates (Greiner or Croning) at a density indicated in Table E (for each CCL, number of cells plated per well of a 96-well plate to perform the CellTiter-Glo® cell viability assay). The cell density in cells/cm^2 would correspond to cell number divided by the area of one well of a 96-well plate (0.32 cm^2). […]
(§10) After 3 days of incubation, the growth media were removed by aspiration and 60 μL of diluted CellTiter-Glo® reagent (10 μL CellTiter-Glo® reagent+50 μL of PBS) was added to each well. […] Luminescence signals were then acquired on a Synergy Neo2 plate reader (Biotek).
(§11) The effect of each compound dilution on the proliferation of cancer cell lines was expressed in % inhibition and calculated as follows. […]
as §7, with “proliferation” for “pERK signal”, “a EC50” for “an IC50”, “effect” for “inhibition”

pERK, SW620 cells = experiment: Phospho-ERK inhibition, AlphaLISA p-ERK 1/2, SW620; details: Table D-2; for IC50: SW620 (KRAS-G12V); for pERK value in parentheses, % inhibition (Ymin): SW620, lowest point of IC50 curve
Procedure: as §1, §2, §3, §4, §5, §6, §7, §8

HT-29 cells = experiment: Proliferation inhibition, CellTiter-Glo, HT-29; details: Table D-1, HT-29 (BRAF V600E), 3 days, read-out: Prolif. (proliferation EC50)
Procedure: as §1, §9, §10, §11
as §7, with “proliferation” for “pERK signal”, “a EC50” for “an IC50”, “effect” for “inhibition”

Row | IC50 (pERK, SW480 cells) | IC50 (pERK, Mewo cells) | IC50 (pERK, HCT116 cells) | IC50 (pERK, SW620 cells) | EC50 (HT-29 cells) | IC50 (pERK, SW480 cells; Homo sapiens) | IC50 (pERK, Mewo cells; Homo sapiens) | IC50 (pERK, SW620 cells; Homo sapiens, SW-620) | EC50 (HT-29 cells; Homo sapiens, 72 h) | Compound | pERK value in parentheses, % inhibition (Ymin) (pERK, SW480 cells) | pERK value in parentheses, % inhibition (Ymin) (pERK, Mewo cells) | HCT116 pERK (Ymin %) (pERK, HCT116 cells) | EC50 (Mewo cells) | pERK value in parentheses, % inhibition (Ymin) (pERK, SW620 cells) | EC50 (Mewo cells; Homo sapiens, 72 h)
1 | 30 to 300 nM | < 30 nM | < 500 nM | 30 to 300 nM | < 300 nM |  |  |  |  | Cc1c(F)cccc1S(=O)(=O)Nc1ccc(F)c(Nc2ncnc3sc(-n4cc(C(=O)N5C6CCC5CN(C)C6)c5ccccc54)nc23)c1F [Example 44] | (−4) % | (3) % | 3% | < 300 nM | (3) % | 
2 | 30 to 300 nM | 30 to 300 nM | < 500 nM | 30 to 300 nM | < 300 nM |  |  |  |  | N#CC1(c2cccc3c2ncn3-c2nc3c(Nc4c(F)ccc(NS(=O)(=O)c5cccc(Cl)c5Cl)c4F)ncnc3s2)CC1 [Example 122] | (5) % | (2) % | 2% | < 300 nM | (−6) % | 
3 |  |  |  |  |  | 30 to 300 nM | 30 to 300 nM | 30 to 300 nM | < 300 nM | Cc1ccc2c(Nc3cccc(Cl)c3F)nccc2c1NC(=O)c1csc2c(N)ncnc12 [Belvarafenib, reference compound] | (−100) % | (−116) % |  |  | (−151) % | 300 to 3000 nM
